Laboratory results published in PubChem BioAssay (NCI).
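A five-concentration, 48-hour dose response in 96-well plates underlies each endpoint, interpolated linearly between surrounding concentrations. GI50: concentration for 50% inhibition of growth. TGI: total growth inhibition.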

Legend:
Assay in all cases: growth of human tumour cells (NCI), 48 h
SN12C renal = tested on: SN12C renal
UACC-257 melanoma = tested on: UACC-257 melanoma
UO-31 renal = tested on: UO-31 renal
NCI-H460 lung = tested on: NCI-H460 lung
DU-145 prostate = tested on: DU-145 prostate
NCI-H226 lung = tested on: NCI-H226 lung
MDA-MB-435 = tested on: MDA-MB-435
SF-268 CNS = tested on: SF-268 CNS
MCF7 breast = tested on: MCF7 breast
OVCAR-3 ovarian = tested on: OVCAR-3 ovarian

Structure (SMILES) | GI50 (SN12C renal) [µM] | TGI (SN12C renal) [µM] | GI50 (UACC-257 melanoma) [µM] | TGI (UACC-257 melanoma) [µM] | GI50 (UO-31 renal) [µM] | TGI (UO-31 renal) [µM] | GI50 (NCI-H460 lung) [µM] | TGI (NCI-H460 lung) [µM] | GI50 (DU-145 prostate) [µM] | TGI (DU-145 prostate) [µM] | GI50 (NCI-H226 lung) [µM] | TGI (NCI-H226 lung) [µM] | GI50 (MDA-MB-435) [µM] | TGI (MDA-MB-435) [µM] | GI50 (SF-268 CNS) [µM] | TGI (SF-268 CNS) [µM] | GI50 (MCF7 breast) [µM] | TGI (MCF7 breast) [µM] | GI50 (OVCAR-3 ovarian) [µM] | TGI (OVCAR-3 ovarian) [µM]
COC(=O)c1ccc(-c2nc3cc(F)c(F)cc3nc2C#N)cc1 | 1.66 | 4.9 | 10.2 | 18.8 | 11.2 | 33.5 | 9.86 | 19.2 | 8.7 | 17.3 | 9.39 | 21.4 | 8.21 | 16.4 | 1.5 | 4.64 | 8.86 | 23.6 | 1.71 | 4.99
Cc1cc(Cl)ccc1NC(=O)/C(Cc1nc2ccc(C(=O)c3ccccc3)cc2[nH]c1=O)=N/NC(=O)c1ccncc1 |  | > 100 |  | > 100 |  | > 100 |  | > 100 |  |  |  | > 100 |  | > 100 |  | > 100 |  | > 100 |  | > 100
CCOC(=O)c1[nH]c2cccc3c2c1CC(Br)C3=O (centres undefined) |  | 30.9 |  | 28.6 |  | 19.2 |  | 47.8 |  | 30.4 |  | 37.2 |  | 25.2 |  | 32.9 |  | 84.3 |  | 26.2
CC1=C(C(=O)Nc2ccc(F)c(Cl)c2)C(c2cccc(O)c2)NC(=S)N1 (centres undefined) | 12.7 | 39.2 | 16.5 | 44.4 | > 50 | > 50 | 22.8 | > 50 | > 50 | > 50 |  |  | 11.6 | 28.9 | 17.8 | > 50 | 17.5 | > 50 | 17.9 | > 50
C[C@@H](Oc1cc(-c2cnn(C3CCNCC3)c2)cnc1N)c1c(Cl)ccc(F)c1Cl | 1.8 | > 10 | 1.52 | 3.15 | 1.08 | 4.74 | 0.662 | 9.32 | 2.74 | > 10 | 0.701 | > 10 | 0.715 | > 10 | 3.48 | > 10 | 0.457 | 2.43 | 3.26 | > 10
CS(=O)(=O)c1ccc(Oc2nccc(-c3c(-c4ccc(F)cc4)ncn3C3CCNCC3)n2)cc1 | > 25 | > 25 |  |  | > 25 | > 25 | > 25 | > 25 | > 25 | > 25 |  |  | > 25 | > 25 | > 25 | > 25 | > 25 | > 25 | > 25 | > 25
CCN(Cc1ccc(F)cc1F)c1ccc(CO)c(Cl)c1 | 11.2 | 23.8 | 0.128 | 0.372 | 4.52 | 43.8 | 0.259 | 6.68 | 20.1 | > 70.9 | 0.0945 | 0.219 | 21 | > 59.6 | 22.7 | > 66.9 | 0.238 | 12.6 | 0.389 | 2.07
CC(C)(C)[Si](C)(C)OC1[C@@H](O[Si](C)(C)C(C)(C)C)[C@@H](CNC(=O)NC(=O)NC(=O)CI)O[C@H]1n1cnc2c(NC(=O)Nc3ccccc3)ncnc21 (some centres undefined) | 6.49 | 15.6 | 7.42 | 16.7 | 0.0888 | 0.178 | 4.79 | 21.7 | 8.67 | 20 | 10.4 | 20.6 | 7.83 | 20.8 | 1.5 | 7.04 | 6.1 | 17.4 | 0.215 | 0.62
C=C(CN1CCc2ccccc2C1)c1ccc(/C=C/C(=O)Nc2ccccc2N)cc1 | 4.49 | 31 | 1.3 | 28 | 0.437 | > 100 | 3.18 | 38.1 | 5.98 | > 100 | 2.64 | 25.4 | 4.89 | 80.7 | 2.44 | 55.3 | 2.37 | > 100 | 5.59 | 51
O=P(Oc1ccccc1)(Oc1ccccc1)C(O)c1ccccc1 (centres undefined) | > 100 | > 100 | 36.5 | > 100 | 29.8 | > 100 | > 100 | > 100 | > 100 | > 100 |  |  | 74 | > 100 | > 100 | > 100 | > 100 | > 100 | 43.9 | > 100
COc1ccc(/C=C\c2cc(OC)c(OC)c(OC)c2)cc1NC(=O)[C@@H](N)CO | 0.0468 | > 100 | 27.1 | > 100 | 0.0486 | > 69.7 | 0.0321 | > 100 | 0.0288 | > 100 | 0.0287 | > 100 |  |  | 0.0462 | > 100 | 0.0207 | > 100 | < 0.0122 | 0.0415
COc1cc(-c2cc(C(=O)Nc3nc4ccccc4s3)nc3cc(-c4ccccc4)nn23)cc(OC)c1OC | 85.1 | > 100 |  |  | > 100 | > 100 | 29.1 | > 100 | 65 | > 100 | 27.5 | > 100 | 2.61 | 40.3 | 4.5 | 48.8 | 22.4 | > 100 | 13.3 | 52.1
Cc1ccc2c(/C=C/C(=O)c3cc(CN4CCOCC4)c(O)c4nc(C)ccc34)cc(CN3CCOCC3)c(O)c2n1 | 0.683 | 12.4 | 2.62 | 13.6 | 0.371 | 1.6 | 0.385 | 9.37 |  |  | 1.24 | 4.13 | 0.669 | 2.3 | 0.81 | 8.66 | 0.356 | 2.74 | 0.875 | 4.6
O=C1CCCSCCCC(=O)CCCSCCC1 |  | > 100 |  | > 100 |  | > 100 |  | > 100 |  | > 100 |  |  |  | > 100 |  | > 100 |  | > 100 |  | > 100
